# Experimental data reported in US20100216827A1 (Metabolex, Inc., priority 2008, published 2010).
# Where two headings read alike, the source gives them in different places.
# Target: T1, human GPR120 (Homo sapiens, UniProt Q5NUL3)
# T1 construct: host or cells: HEK293 cells coexpressing Gqi5
# T1 sequence (Q5NUL3 1-361): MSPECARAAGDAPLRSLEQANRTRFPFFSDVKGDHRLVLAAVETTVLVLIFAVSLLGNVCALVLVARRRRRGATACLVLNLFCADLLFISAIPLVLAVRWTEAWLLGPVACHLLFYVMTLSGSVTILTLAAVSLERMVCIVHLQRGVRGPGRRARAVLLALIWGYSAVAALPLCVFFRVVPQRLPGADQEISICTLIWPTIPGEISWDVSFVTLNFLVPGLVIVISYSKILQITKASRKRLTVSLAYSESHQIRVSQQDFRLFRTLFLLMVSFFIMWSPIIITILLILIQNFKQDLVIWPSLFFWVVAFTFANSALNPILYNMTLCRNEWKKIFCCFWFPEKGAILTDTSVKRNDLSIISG
# Experiment: Intracellular Ca2+ (FLIPR Calcium 4, Flexstation) assay in human GPR120 stable HEK293 cell line coexpressing Gqi5
# Assay type: cell-based
# Conditions: for % Activity at 5 μM: 5 μM compound compared to the maximal activity of GW9508 at 6.7 μM (100%); for EC50: human GPR120 stably expressing cells, 8 concentrations 0.00001 to 20 μM
# Experimental: Human GPR120 stable cell line was purchased from Multispan Inc (26219 Eden Landing Road, Hayward, Calif. 94545). This GPR120 cell line was generated in HEK293 cells coexpressing Gqi5. In this cell line, the Flag epitope tag (DYKDDDDK) was fused to the amino terminus of human GPR120 protein.
# The concentration of intracellular Ca^2+ was measured as described below. Human GPR120 cells were plated in 96 well plates (Poly-D-Lysine coated black/clear Plate, Greiner Bio-One) at 70,000 cells per well and cultured overnight in conditions of 37° C. and 5% CO2. A Ca^2+ assay dye stock solution was prepared by adding 10 mL of assay buffer (HBSS/20 mM HEPES, pH 7.4) to FLIPR Calcium 4 Assay Bulk Kit (Molecular Devices). The 10 mL of Ca^2+ assay dye solution was prepared by further diluting 0.5 mL of Ca^2+ assay dye stock solution with 10 mL of assay buffer. The medium of the cells was removed and immediately 100 μl of the Ca^2+ assay dye solution was dispensed into each well followed by incubation at 37° C. and 5% CO2 for 50 minutes to incorporate the Ca^2+ dye into the cells. The cell plate was then placed in the Flexstation (Molecular Devices) for 20 minutes at 37° C. Compounds were dissolved in 100% DMSO and diluted to desired concentrations with assay buffer and placed in Flexstation simultaneously with the cell plate for 20 minute incubation at 37° C. prior to reading. Fluorescence intensity was measured immediately following compound addition (25 μl/well) on the Flexstation at an excitation wavelength of 485 nm and an emission wavelength of 525 with 515 nm auto cutoff. The resulting increase in fluorescence intensities corresponds to increases in intracellular Ca^2+ levels.
# Compounds were dissolved in 100% DMSO to a concentration of 20 mM to provide stock solutions. To determine activity against human GPR120, compounds were added with human GPR120 stably expressing cells (described above), at 8 desired concentrations ranging from 0.00001 to 20 μM, in 96 well plates and fluorescence intensities were measured for 90 seconds with 2-second intervals. An EC50 value (concentration of the GPR120 agonist where 50% of the agonist's maximal activity is observed) was calculated using the changes (Max-Min) of fluorescent intensity.
# To determine percent activity for a tested compound, the fluorescence intensity value obtained at a particular concentration were compared to the maximal fluorescence intensity value obtained for reference compound GW9508 (4-[[(3-phenoxyphenyl)methyl]amino]benzene propanoic acid; British Journal of Pharmacology 2006 148, 619-628) that acts as a full agonist of the GPR120 receptor. The maximal activity of GW9508 is designated as 100% activity. Typically, the GW9508 activity reached a maximum at a concentration of approximately 6.7 μM. Activities of compounds that were tested according to this method are shown in Table 1 below and are expressed as % activity at 5 μM compound compared to the maximal activity of GW9508 at 6.7 μM.
# [1] = read-out: EC50 between >1 μM and ≦10 μM
SMILES,% Activity at 5 μM [%],EC50 (read-out: EC50 ≦ 1 μM) [nM],EC50 [1] [nM]
"Cc1cc(COc2c(F)cc(CCC(=O)O)cc2F)n(-c2ccc(F)cc2)n1 [Example 47, 3-(3,5-difluoro-4-((1-(4-fluorophenyl)-3-methyl-1H-pyrazol-5-yl)methoxy)phenyl)propanoic acid]",71,≤ 1000,
"CCc1ccc(-n2nc(C)cc2COc2ccc(CC(C)C(=O)O)cc2F)cc1 (centres unmarked) [Example 90, 3-(4-((1-(4-ethylphenyl)-3-methyl-1H-pyrazol-5-yl)methoxy)-3-fluorophenyl)-2-methylpropanoic acid]",99,≤ 1000,
"CCc1ccc(-n2nc(C)cc2COc2c(F)cc(CCCC(=O)O)cc2F)cc1 [Example 130, 4-(4-((1-(4-ethylphenyl)-3-methyl-1H-pyrazol-5-yl)methoxy)-3,5-difluorophenyl)butanoic acid]",103,≤ 1000,
"Cc1cc(COc2ccc(CCCC(=O)O)cc2)n(-c2ccccc2)n1 [Example 45, 4-(4-((3-methyl-1-phenyl-1H-pyrazol-5-yl)methoxy)phenyl)butanoic acid]",61,≤ 1000,
"O=C(O)CCc1cc(F)c(OCc2cc(C(F)(F)F)nn2-c2ccc(Cl)cc2)c(F)c1 [Example 56, 3-(4-((1-(4-chlorophenyl)-3-(trifluoromethyl)-1H-pyrazol-5-yl)methoxy)-3,5-difluorophenyl)propanoic acid]",71,≤ 1000,
"COc1cc(OCc2cc(C)nn2-c2ccc(Cl)cc2)ccc1CC(C)C(=O)O (centres unmarked) [Example 103, 3-(4-((1-(4-Chlorophenyl)-3-methyl-1H-pyrazol-5-yl)methoxy)-2-methoxyphenyl)-2-methylpropanoic acid]",78,,1000 to 10000
"CC(Cc1cc(F)c(OCc2ccnn2-c2ccccc2)c(F)c1)C(=O)O (centres unmarked) [Example 91, 3-(3,5-difluoro-4-((1-phenyl-1H-pyrazol-5-yl)methoxy)phenyl)-2-methylpropanoic acid]",64,≤ 1000,
"Cc1onc(-c2ccc(F)cc2)c1COc1c(F)cc(C2CC2C(=O)O)cc1F (centres unmarked) [Example 17, 2-(3,5-difluoro-4-((3-(4-fluorophenyl)-5-methylisoxazol-4-yl)methoxy)phenyl)cyclopropanecarboxylic acid]",78,,1000 to 10000
"Cc1cc(COc2c(F)cc(CC(C)C(=O)O)cc2F)n(-c2ccc(C)c(Cl)c2)n1 (centres unmarked) [Example 88, 3-(4-((1-(3-chloro-4-methylphenyl)-3-methyl-1H-pyrazol-5-yl)methoxy)-3,5-difluorophenyl)-2-methylpropanoic acid]",107,≤ 1000,
"O=C(O)CCc1cc(F)c(OCc2nccn2Cc2ccccc2)c(F)c1 [Example 11, 3-(4-((1-benzyl-1H-imidazol-2-yl)methoxy)-3,5-difluorophenyl)propanoic acid]",75,,1000 to 10000
"Cc1cc(COc2c(F)cc(CC(C)(C)C(=O)O)cc2F)n(-c2ccc(Cl)cc2)n1 [Example 38, 3-(4-((1-(4-chlorophenyl)-3-methyl-1H-pyrazol-5-yl)methoxy)-3,5-difluorophenyl)-2,2-dimethylpropanoic acid]",100,,1000 to 10000
"CC(Cc1cc(F)c(OCc2c(C(F)(F)F)nn(C)c2Oc2ccc(Cl)cc2)c(F)c1)C(=O)O (centres unmarked) [Example 115, 3-(4-((5-(4-Chlorophenoxy)-1-methyl-3-(trifluoromethyl)-1H-pyrazol-4-yl)methoxy)-3,5-difluorophenyl)-2-methylpropanoic Acid]",118,≤ 1000,
"O=C(O)CCc1cc(F)c(OCc2cc(C(F)(F)F)nn2-c2ccccc2)c(F)c1 [Example 65, 3-(3,5-difluoro-4-((1-phenyl-3-(trifluoromethyl)-1H-pyrazol-5-yl)methoxy)phenyl)propanoic acid]",86,≤ 1000,
"CCc1ccc(-n2nc(C)cc2COc2c(F)cc(C[C@H](C)C(=O)O)cc2F)cc1 [Example 99, (S)-3-(4-((1-(4-ethylphenyl)-3-methyl-1H-pyrazol-5-yl)methoxy)-3,5-difluorophenyl)-2-methylpropanoic acid]",73,≤ 1000,
"CCOC(Cc1cc(F)c(OCc2cc(C)nn2-c2ccc(Cl)cc2)c(F)c1)C(=O)O (centres unmarked) [Example 102, 3-(4-((1-(4-chlorophenyl)-3-methyl-1H-pyrazol-5-yl)methoxy)-3,5-difluorophenyl)-2-ethoxypropanoic acid]",61,,1000 to 10000
"O=C(O)CCc1cc(F)c(OCc2ncoc2-c2ccccc2)c(F)c1 [Example 10, 3-(3,5-difluoro-4-((5-phenyloxazol-4-yl)methoxy)phenyl)propanoic acid]",60,≤ 1000,
"Cc1cc(COc2c(F)cc(C3CC3C(=O)O)cc2F)n(-c2ccccc2)n1 (centres unmarked) [Example 64, 2-(3,5-difluoro-4-((3-methyl-1-phenyl-1H-pyrazol-5-yl)methoxy)phenyl)cyclopropane carboxylic acid]",71,≤ 1000,

# The remaining lines, values ahead:
% Activity at 5 μM [%],EC50 (read-out: EC50 ≦ 1 μM) [nM],EC50 [1] [nM],SMILES
85,,1000 to 10000,"CCc1ccc(-n2nc(C)cc2COc2ccc(CCC(C)C(=O)O)cc2)cc1 (centres unmarked) [Example 132, 4-(4-((1-(4-ethylphenyl)-3-methyl-1H-pyrazol-5-yl)methoxy)phenyl)-2-methylbutanoic acid]"
99,≤ 1000,,"CCc1ccc(-n2nc(C)cc2COc2ccc(CCCC(=O)O)cc2)cc1 [Example 129, 4-(4-((1-(4-ethylphenyl)-3-methyl-1H-pyrazol-5-yl)methoxy)phenyl)butanoic acid]"
85,≤ 1000,,"O=C(O)CCc1cc(F)c(OCc2snnc2-c2ccc(F)cc2)c(F)c1 [Example 31, 3-(3,5-difluoro-4-((4-(4-fluorophenyl)-1,2,3-thiadiazol-5-yl)methoxy)phenyl)propanoic acid]"
72,≤ 1000,,"O=C(O)CCc1cc(F)c(OCc2snnc2-c2ccc(F)c(F)c2)c(F)c1 [Example 73, 3-(4-((4-(3,4-difluorophenyl)-1,2,3-thiadiazol-5-yl)methoxy)-3,5-difluorophenyl)propanoic acid]"
54,,1000 to 10000,"CO/N=C(/CCC(=O)O)c1ccc(OCc2snnc2-c2ccc(Cl)cc2)cc1 [Example 68, (Z)-4-(4-((4-(4-chlorophenyl)-1,2,3-thiadiazol-5-yl)methoxy)phenyl)-4-(methoxyimino)butanoic acid]"
68,,1000 to 10000,"Cc1cc(COc2ccc(CCC(C)C(=O)O)cc2)n(-c2ccc(Cl)cc2)n1 (centres unmarked) [Example 131, 4-(4-((1-(4-chlorophenyl)-3-methyl-1H-pyrazol-5-yl)methoxy)phenyl)-2-methylbutanoic acid]"
62,,1000 to 10000,"C/C(=C\C(=O)O)CCc1ccc(OCc2snnc2-c2ccc(Cl)cc2)cc1 [Example 70, (E)-5-(4-((4-(4-chlorophenyl)-1,2,3-thiadiazol-5-yl)methoxy)phenyl)-3-methylpent-2-enoic acid]"
85,,1000 to 10000,"O=C(O)CSc1ccc(OCc2snnc2-c2ccccc2)cc1 [Example 29, 2-(4-((4-phenyl-1,2,3-thiadiazol-5-yl)methoxy)phenylthio)acetic acid]"
